Assay results taken from US20250154180A1, “CRK-LIKE (CRKL) ADAPTOR PROTEIN INHIBITORS AND METHODS OF MAKING AND USING THE SAME” (Rutgers, The State University of New Jersey, priority 2022, published 2025).

How the values were obtained:
[1] = tested on: breast cancer cells (MCF7, MDA-MB-453, MDA-MB-231, MDA-MB-231-GFP-LUC, Hs578t, MDA-MB-468); assay: MTT assay, breast cancer cell lines (TNBC and non-TNBC); type: cell-based; conditions: 72 h, three days after treatment
Experimental: Peripheral blood mononuclear cells (PBMCs, line with the symbol □) were used to determine the specificities of the cytotoxic effects of Pomiferin. The survival curve of PBMC-average is from four different healthy donors. Cells (1×10^3−3×10^3) were plated in 96-well plates, and cell growth was determined by MTT assay three days after cells were treated with Pomiferin at the indicated doses.
MTT assay—The MTT assay was used to detect cell proliferation. Briefly, cells were plated in a 96-well plate at a density of 50,000 cells/well in 200 μl of culture medium with candidate drugs to be tested (DMSO as a negative control). The treated cells were incubated for four hours a 37° C. with a 5% CO2 incubator to allow dark crystals to form at the bottom of the wells. After culturing for 48 hours, […] of MTT reagent was added to each well and mixed gently for one minute. After aspirating the culture medium from each well, 100 μl of crystal dissolving solution was added to each well and incubated for 10 minutes at RT. The signal was quantified by measuring the absorbance in each sample at 570 nm using a microplate reader.

P-ERK1/2 in PBMC = assay: Western blotting, PBMC; type: cell-based, human; conditions: NC5 1, 5, 10 uM, 24 hours
[2] = tested on: pCrkL, P-ERK1/2, pJNK, BIM in MDA-231 and MDA-468 cells; assay: Western blotting of pCrkL and downstream proteins, breast cancer cells; type: cell-based
Experimental: Western blotting—According to the company's protocol (Thermo Scientific, Waltham, MA). Western blotting was performed using 20 μg of total cell extracts. Briefly, transferred membranes were incubated with primary antibodies for […] according to the sensitivity of each antibody, followed by HRP-linked secondary antibody for 1 hour. Each membrane was stripped and re-probed for b-actin, which was used as an internal loading control. The protein bands were visualized using a chemiluminescence detection system (Thermo Scientific). The relative optical densities of each band were quantitated and indicated numerically below the bands in each Western blot.
To investigate the molecular mechanisms of Pomiferin-induced apoptosis in breast cancer cells. […] Cell proliferation was first determined by MTT assay as confirmation. […] CrkL is known to mediate the activation of both Raf/ERK and PI3K pathways. So, proteins that relate to these two pathways were utilized.
The Integrated Density Values (IDV) of each band were measured and shown under each blot. […] Inhibition of pCrkL breaks the balance of cell proliferation and death in triple-negative breast cancer cells by regulating these signaling transduction pathways (FIG. 15). The different expression of these proteins in TNBC vs. normal immune cells makes Pomiferin and compounds disclosed herein a candidate for cancer therapy.

[3] = tested on: TM00089 TNBC patient-derived tumor; assay: TNBC patient-derived xenograft (PDX) TM00089 model; type: in vivo, mice
Excerpt: For the patient-derived xenograft (PDX) model, a cohort of mice engrafted with the TNBC tumor model #TM00089-Breast-Tumor Markers: TNBC ER−(estrogen receptor-negative)/PR—(progesterone receptor-negative)/HER2—(human epidermal growth factor receptor two negative), BRCA1 V757fs (4 to 6-weeks-old females) were obtained from Jackson Laboratories (Bar Harbor, ME). PDX models were generated by surgically engrafting tumor cells into the mammary fat pad of NSG™ (nonobese diabetic, severe combined immunodeficiency, interleukin-2 receptor gamma chain-null) mice.
To determine inhibition efficacy in vivo of Pomiferin in the TNBC clinical patient tumor, the therapeutic efficacy of Pomiferin in a patient-derived tumor xenograft mouse from the Jackson Laboratory PDX Live™ library was evaluated. The TM00089 breast invasive ductal carcinoma was selected, characterized as TNBC ER^−/PR^−/HER2^−, BRCA1^V757fs since TNBC tumors with BRCA1 mutations are generally the most aggressive and have the worst prognosis within the first five years after diagnosis compared to other types of breast cancers.

Ab1 = Ab1 (Homo sapiens, UniProt P00519); assay: Thermal shift assay, Ab1; type: binding
Chain of Ab1 (P00519 whole entry): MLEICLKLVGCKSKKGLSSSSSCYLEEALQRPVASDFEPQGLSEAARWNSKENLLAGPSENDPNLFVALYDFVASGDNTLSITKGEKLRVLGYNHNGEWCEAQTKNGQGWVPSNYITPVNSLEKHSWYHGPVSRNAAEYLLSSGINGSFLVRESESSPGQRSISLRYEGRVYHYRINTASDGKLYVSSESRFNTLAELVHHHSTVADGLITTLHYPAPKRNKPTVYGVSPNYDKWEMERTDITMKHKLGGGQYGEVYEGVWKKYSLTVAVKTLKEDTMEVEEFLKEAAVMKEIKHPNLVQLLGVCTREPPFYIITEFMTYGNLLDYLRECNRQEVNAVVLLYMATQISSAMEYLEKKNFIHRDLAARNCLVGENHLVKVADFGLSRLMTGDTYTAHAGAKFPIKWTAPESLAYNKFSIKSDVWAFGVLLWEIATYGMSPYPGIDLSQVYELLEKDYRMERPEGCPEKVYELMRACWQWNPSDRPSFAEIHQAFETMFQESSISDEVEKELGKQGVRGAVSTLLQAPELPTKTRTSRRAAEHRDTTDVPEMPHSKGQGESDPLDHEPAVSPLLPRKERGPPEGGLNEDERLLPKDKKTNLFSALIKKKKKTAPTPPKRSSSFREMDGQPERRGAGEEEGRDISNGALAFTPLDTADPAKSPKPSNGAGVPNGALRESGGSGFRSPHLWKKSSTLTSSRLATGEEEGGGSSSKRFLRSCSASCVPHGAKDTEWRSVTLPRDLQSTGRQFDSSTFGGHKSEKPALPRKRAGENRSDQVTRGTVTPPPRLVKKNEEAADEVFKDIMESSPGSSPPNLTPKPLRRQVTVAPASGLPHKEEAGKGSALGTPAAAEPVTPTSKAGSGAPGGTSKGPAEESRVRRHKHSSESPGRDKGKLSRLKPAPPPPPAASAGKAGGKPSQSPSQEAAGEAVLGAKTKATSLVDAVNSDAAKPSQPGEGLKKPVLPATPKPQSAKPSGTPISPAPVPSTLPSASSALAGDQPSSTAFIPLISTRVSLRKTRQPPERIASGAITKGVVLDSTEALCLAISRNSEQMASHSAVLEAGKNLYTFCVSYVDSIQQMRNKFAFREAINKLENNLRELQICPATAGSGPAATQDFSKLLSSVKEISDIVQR
Experimental: Thermal Shift Assay—Thermal shift assay is a thermal-denaturation assay, which can measure the thermal stability of a tested protein. When a protein of interest is bound to a ligand (or drug), its melting temperature increases. For each single well assay, CrkL (1 μg per well), SYPRO® Orange (1:500 dilution from original stock), candidate drugs (same final concentration as in AlphaScreen) and reaction buffer (1×TBS) were mixed. The total volume for a single well was 10 ul. The assay was quantified by a melt curve on a real-time PCR machine, using melting temperatures from 20° C. to 95° C.
In a thermal shift assay, each tested protein (purified Ab1 or CrkL) has a melting temperature (Tm) detected by a protein stain dye such as Sypro Orange. […] An increase of 2° C. or greater in Tm (stable increase in three independent experiments) was defined as a positive result in these thermal shift assays.

[4] = tested on: pCrkL in MDA-MB-231-LUC cells; assay: Flow cytometry of intracellular pCrkL/CrkL, MDA-MB-231-LUC; type: cell-based; conditions: three M Pomiferin for six days
Excerpt: The cells were labeled with total CrkL or phosphor-CrkL by Alexa Fluor 647 (AF-647) and stained with secondary antibodies conjugated with AF-647 as staining control. […] The star symbol indicates the significance of vehicle vs. Pomiferin of the indicated concentration. *p<0.05, **p<0.005, ***p<0.0005. Data represent mean±SEM, n=4.
The intracellular pCrkL level from breast cancer cell lines between Pomiferin-treated and vehicle control groups was examined.

[5] = tested on: IL-2 production from human PBMCs; assay: IL-2 ELISA, PBMCs; type: cell-based
Experimental: IL-2 ELISA—IL-2 in vitro enzyme-linked immunosorbent assay (ELISA) was used to measure human IL-2 productions. This assay was conducted per the user manual from the kit. In brief, human PBMCs were cultured in R10 medium with 0.5 μg/ml PHA. Then, 100 μl of the standard and sample was added to each well and incubated at 4° C. overnight. A prepared biotin antibody (100 μl) was added to each well and incubated for 1 hour at room temperature. Then, 100 μl prepared streptavidin solution was added and incubated for 45 minutes at room temperature. TMB one-step substrate reagent (100 μl) was then added to each well and incubated for 30 minutes at room temperature. Stop solution (50 μl) was then added to each well, and the results were quantified at 450 nm by Infinite M1000 Pro Plate Reader (Tecan, Switzerland) immediately.
Previous studies have shown that phosphorylated CrkL inhibits immune cell functions. It was then evaluated whether a pCrkL inhibitor could restore immune cell functions. To test this, the production of IL-2 from human PBMCs treated with different concentrations of Pomiferin was quantitated. Phytohemagglutinin (PHA) was used to stimulate the secretion of IL-2 as a positive control group. […] Similar results were obtained from the third donor (FIG. 5B, lower panel).

[6] = tested on: pCrkL (T207) in Sk-Hep1 cells; assay: Flow cytometry of H2O2-induced pCrkL, Sk-Hep1; type: cell-based; conditions: 50 uM H2O2 1 hour, then 10 uM compound 24 hours
Experimental: In this example, Sk-Hep1 cells were pretreated with 50 uM H2O2 for 1 hour to induce activation of pCrkL and were then incubated with 10 uM NC5 or Compound III for 24 hours. pCrkL (T207) expression was determined by flow cytometry.

Compound: CC(C)=CCc1c2c(c3occ(-c4ccc(O)c(O)c4)c(=O)c3c1O)C=CC(C)(C)O2 [Pomiferin, 3′,4′,5-Trihydroxy-6″,6″-dimethyl-6-(3-methylbut-2-en-1-yl)-6″H-pyrano[2″,3″:7,8]isoflavone]
- IC50 [1]: 1300 to 3600 nM
- P-ERK1/2 levels (Western blotting) (P-ERK1/2 in PBMC): minimal changes
- P-ERK1/2 levels (Western blotting) ([2]; NC5 1, 5, 10 uM, 24 hours): reduces P-ERK1/2 levels
- pCrkL levels (Western blotting) ([2]; NC5 1, 5, 10 uM, 24 hours): dramatically inhibited
- BIM levels (Western blotting) ([2]; NC5, 24 hours): dramatically increased
- pJNK levels (Western blotting) ([2]; NC5, 24 hours): dramatically increased
- tumor growth ([3]; 5.0 μg/g Pomiferin vs vehicle): significantly more inhibited
- median survival, fold longer than vehicle control ([3]; Pomiferin 5 μg/g): 1.4 fold
- median survival ([3]; Pomiferin 5 μg/g, vehicle 39 days): 53 days
- body weights ([3]; vs vehicle, during drug treatment period): not significantly different
- binding to Ab1 versus Crk (thermal shift) (Ab1): specifically binds to Crk, but not Ab1 proteins
- total CrkL expression [4]: not many differences in total CrkL expression
- intracellular pCrkL level ([4]; vs vehicle): reduced the intracellular pCrkL level
- IL2 secretion ([5]; PBMCs from three healthy donors, treated overnight): did not inhibit IL2 secretion
- IL-2 production ([5]; first donor, compared to DMSO): decreased IL-2 production
- H2O2 induced pCrkL protein levels [6]: inhibited H2O2 induced pCrkL protein levels
